Experimental data: the NIST ThermoML archive (doi:10.1016/j.fluid.2006.06.022)
± gives the expanded uncertainty stated by the source.

Settings: Liquid, Ebulliometric method (Recirculating still)

CCC [propane]
vapor or sublimation pressure (313.15 K): 1374 ± 6 kPa | vapor or sublimation pressure (323.15 K): 1712 ± 8 kPa | vapor or sublimation pressure (333.15 K): 2115 ± 9 kPa | vapor or sublimation pressure (343.15 K): 2586 ± 11 kPa | vapor or sublimation pressure (353.15 K): 3151 ± 14 kPa | vapor or sublimation pressure (363.15 K): 3767 ± 16 kPa

CC(F)(F)F [1,1,1-trifluoroethane]
vapor or sublimation pressure (313.15 K): 1831 ± 9 kPa | vapor or sublimation pressure (323.15 K): 2307 ± 10 kPa | vapor or sublimation pressure (333.15 K): 2874 ± 13 kPa
